Patent US20070203066A1, “Compositions and methods for inhibiting cellular proliferation” (priority 2005, published 2007)
Like-named read-outs stand apart in the source and are kept apart here. Positions of bridges follow the written chain, without caps; N, C: chain ends. Residues, ends and D or L forms follow the SMILES beside them. Chains are numbered I, II in the order given. No end group written: not given here. Ida = iminodiacetic acid linker, its two carboxyls bind the Lys side-chain amines of two peptides, giving a homodimer

Tests used:
[1] = system: HUVECs; type: cell-based
How it was run: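 HUVECs seeded at 5,000 cells/well in EBM with 2% FCS, adhered ≥12 hours, then stimulated with bFGF 10 ng/ml or VEGF 5 ng/ml plus varying peptide concentrations. After 48 hours at 37 ° C, 5% CO2, proliferation inhibition read by BrdU incorporation.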

[2] = system: bFGF-induced angiogenesis in Matrigel plugs; assay: Murine Matrigel plug angiogenesis assay; type: in vivo, C57B1/6 mice; settings: 10-12 days of treatment, hemoglobin in plugs vs +bFGF/Buffer control
Method: In order to assess the effect of the peptides in this invention on angiogenesis, an additional assay was used to assess antiangiogenic activity.
Briefly, Matrigel (BD Biosciences, San Jose, Calif.) is mixed with 0.5 μg/ml of bFGF. 0.5 ml of this Matrigel/bFGF mixture is then injected subcutaneously on the ventral abdominal surface at the level of the xiphoid process of C57B1/6 mice. Matrigel plugs, injected in absence of bFGF addition, are used as negative controls. Treatment with various peptides is initiated 12-18 hours later. Animals are treated by i.p. administration of peptides, dosed at 0.2mg/d of peptide dimers, and 1.4 mg/d of Pegylated peptide dimers. After 10-12 days of treatment, animals are euthanized, and the Matrigel plugs are surgically removed, and cleaned of mouse tissue, fascia, and fat. […] After centrifugation, supernatant for each plug is assayed for the presence of Hemoglobin using a Serum Hemoglobin analysis kit (Sigma Diagnostics, St. Louis, Mo.). Angiogenesis is defined as the fold increase of hemoglobin in the buffer control treated mouse Matrigel plugs, above the amount of hemoglobin in negative (−bFGF) control Matrigel plugs. For experimental peptide treated animals, the percent inhibition is defined as the inhibition seen when comparing positive control plugs (+bFGF/ Buffer treatment) with peptide treated plugs (+bFGF/ Peptide treatment).

[3] = system: Mouse Lewis lung carcinoma (LLC) cells; assay: Proliferation assay of tumor cells (BrdU incorporation), LLC; type: cell-based; settings: 48 hours, read-out: Inhibitory Activity (IC50 uM) LLC
Method: (§1) The antiproliferative activity of selected peptides of the present invention was assessed on several tumor cell lines. Mouse Lewis lung carcinoma (LLC) cells were routinely cultured to near confluency in DMEM media with 10% FCS added. The cells were trypsinized and plated in a 96-well plate at 5,000 cells per well per 100 μl media supplemented with 2% FCS and antibiotics. MDA-MB-231 cells were routinely cultured to near confluency in advanced DMEM media supplemented with 10% FCS. The cells were allowed to adhere to the plate for at least 12 hours. Then, whole media and various concentrations of peptide, were added to the wells. The cells were cultured for 48 hours at 37 ° C. in a 5% CO2 atmosphere. Cell proliferation was determined using a bromo-deoxyuridine (BrdU) incorporation method as described by the manufacturer. Inhibition of cell proliferation, was assessed by BrdU incorporation.
(§2) The ability of representative peptides of this invention for their ability to inhibit various tumor cells line proliferation are listed below in Table 2.

[4] = system: MDA-MB-231 cells; assay: Proliferation assay of tumor cells (BrdU incorporation), MDA-MB-231; type: cell-based; settings: MDA-MB-231 proliferation, 48 hours, read-out: Inhibitory Activity (IC50 uM) MDA-MB-231
Method: as §1, §2

[5] = HUVEC proliferation, bFGF at 10 ng/ml or VEGF at 5 ng/ml, 48 hours, BrdU incorporation, read-out: IC50 on HUVECs
[6] = Pegylated peptide dimers, i.p. 1.4 mg/d

Compound: 376 (Ac-ARRRRQRVAIYFK-NH2; not fully specified (residue 13); also: homodimer via Ida-PEG 30 kDa linker on Lys13 side chain) [compound 376]
- IC50 [1, 5]: < 10 µM
- Matrigel Model % Inhibition [2, 6]: 42.0%

Compound: 267 (Ac-RRRRRQAVAIYFK-NH2; not fully specified (residue 13); also: homodimer via Ida linker on Lys13 side chain) [compound 267]
- IC50 [1, 5]: < 10 µM
- Matrigel Model % Inhibition ([2]; peptide dimers, i.p. 0.2mg/d): 36.0%

Compound: CC[C@H](C)[C@H](NC(=O)[C@H](CCCNC(=N)N)NC(=O)[C@@H](NC(=O)[C@H](Cc1c[nH]cn1)NC(=O)[C@H](CCC(N)=O)NC(=O)[C@H](CCCNC(=N)N)NC(=O)[C@H](Cc1c[nH]cn1)NC(=O)[C@H](CCCNC(=N)N)NC(=O)[C@H](CCCNC(=N)N)NC(=O)[C@H](CCCNC(=N)N)NC(C)=O)C(C)C)C(=O)N[C@H](C(=O)N[C@@H](Cc1ccccc1)C(=O)NCCCC[C@H](NC(=O)[C@H](Cc1ccccc1)NC(=O)[C@@H](NC(=O)[C@@H](NC(=O)[C@H](CCCNC(=N)N)NC(=O)[C@@H](NC(=O)[C@H](Cc1c[nH]cn1)NC(=O)[C@H](CCC(N)=O)NC(=O)[C@H](CCCNC(=N)N)NC(=O)[C@H](Cc1c[nH]cn1)NC(=O)[C@H](CCCNC(=N)N)NC(=O)[C@H](CCCNC(=N)N)NC(=O)[C@H](CCCNC(=N)N)NC(C)=O)C(C)C)[C@@H](C)CC)[C@@H](C)CC)C(N)=O)[C@@H](C)CC [Peptide 244] (I: Ac-RRRHRQHVRIIFK-NH2 / II: Ac-RRRHRQHVRIIF; amide I:13-II:C)
- IC50 [3]: < 10 µM
- IC50 ([1]; 48 h): < 10 µM
- IC50 [4]: < 10 µM

Compound: 375 (Ac-RRRRRQRVRIIFK-NH2; not fully specified (residue 13); also: homodimer via Ida-PEG 30 kDa linker on Lys13 side chain) [compound 375]
- IC50 [1, 5]: < 10 µM
- Matrigel Model % Inhibition [2, 6]: 46.0%

Compound: 315 (Ac-ARRRRQAVAIYFK(Ida)-NH2; also: homodimer via Ida linker on Lys13 side chain) [compound 315]
- IC50 [1, 5]: < 10 µM
- Matrigel Model % Inhibition ([2]; peptide dimers, i.p. 0.2mg/d): 52.0%

Compound: CC[C@H](C)[C@H](NC(=O)[C@H](C)NC(=O)[C@@H](NC(=O)[C@H](CCCNC(=N)N)NC(=O)[C@H](CCC(N)=O)NC(=O)[C@H](CCCNC(=N)N)NC(=O)[C@H](C)NC(=O)[C@H](Cc1c[nH]cn1)NC(=O)[C@H](CCCNC(=N)N)NC(=O)[C@H](C)NC(C)=O)C(C)C)C(=O)N[C@H](C(=O)N[C@@H](Cc1ccccc1)C(=O)NCCCC[C@H](NC(=O)[C@H](Cc1ccccc1)NC(=O)[C@@H](NC(=O)[C@@H](NC(=O)[C@H](C)NC(=O)[C@@H](NC(=O)[C@H](CCCNC(=N)N)NC(=O)[C@H](CCC(N)=O)NC(=O)[C@H](CCCNC(=N)N)NC(=O)[C@H](C)NC(=O)[C@H](Cc1c[nH]cn1)NC(=O)[C@H](CCCNC(=N)N)NC(=O)[C@H](C)NC(C)=O)C(C)C)[C@@H](C)CC)[C@@H](C)CC)C(N)=O)[C@@H](C)CC [Peptide 214] (I: Ac-ARHARQRVAIIFK-NH2 / II: Ac-ARHARQRVAIIF; amide I:13-II:C)
- IC50 [3]: > 30 µM
- IC50 ([1]; 48 h): > 30 µM
- IC50 [4]: > 30 µM

Compound: 167 (Ac-RRRRRQRVRIIFK; not fully specified (C-terminus); also: homodimer via Ida linker on Lys13 side chains) [compound 167]
- IC50 [1, 5]: < 10 µM
- Matrigel Model % Inhibition ([2]; peptide dimers, i.p. 0.2mg/d): 42.0%

Compound: CC[C@H](C)[C@H](NC(=O)[C@H](CCCNC(=N)N)NC(=O)[C@@H](NC(=O)[C@H](CCCNC(=N)N)NC(=O)[C@H](CCC(N)=O)NC(=O)[C@H](CCCNC(=N)N)NC(=O)[C@H](CCCNC(=N)N)NC(=O)[C@H](CCCNC(=N)N)NC(=O)[C@H](CCCNC(=N)N)NC(=O)[C@@H](N)CCCNC(=N)N)C(C)C)C(=O)N[C@H](C(=O)N[C@@H](Cc1ccccc1)C(=O)NCCCC[C@H](NC(=O)[C@H](Cc1ccccc1)NC(=O)[C@@H](NC(=O)[C@@H](NC(=O)[C@H](CCCNC(=N)N)NC(=O)[C@@H](NC(=O)[C@H](CCCNC(=N)N)NC(=O)[C@H](CCC(N)=O)NC(=O)[C@H](CCCNC(=N)N)NC(=O)[C@H](CCCNC(=N)N)NC(=O)[C@H](CCCNC(=N)N)NC(=O)[C@H](CCCNC(=N)N)NC(=O)[C@@H](N)CCCNC(=N)N)C(C)C)[C@@H](C)CC)[C@@H](C)CC)C(N)=O)[C@@H](C)CC [Peptide 132] (I: H-RRRRRQRVRIIFK-NH2 / II: H-RRRRRQRVRIIF; amide I:13-II:C; N-terminus assumed)
- IC50 [3]: < 10 µM
- IC50 ([1]; 48 h): < 10 µM
- IC50 [4]: < 10 µM

Compound: CC[C@H](C)[C@H](NC(=O)[C@H](CCCNC(=N)N)NC(=O)[C@@H](NC(=O)[C@H](CCCNC(=N)N)NC(=O)[C@H](CCC(N)=O)NC(=O)[C@H](CCCNC(=N)N)NC(=O)[C@H](Cc1c[nH]cn1)NC(=O)[C@H](Cc1c[nH]cn1)NC(=O)[C@H](CCCNC(=N)N)NC(=O)[C@H](CCCNC(=N)N)NC(C)=O)C(C)C)C(=O)N[C@H](C(=O)N[C@@H](Cc1ccccc1)C(=O)NCCCC[C@H](NC(=O)[C@H](Cc1ccccc1)NC(=O)[C@@H](NC(=O)[C@@H](NC(=O)[C@H](CCCNC(=N)N)NC(=O)[C@@H](NC(=O)[C@H](CCCNC(=N)N)NC(=O)[C@H](CCC(N)=O)NC(=O)[C@H](CCCNC(=N)N)NC(=O)[C@H](Cc1c[nH]cn1)NC(=O)[C@H](Cc1c[nH]cn1)NC(=O)[C@H](CCCNC(=N)N)NC(=O)[C@H](CCCNC(=N)N)NC(C)=O)C(C)C)[C@@H](C)CC)[C@@H](C)CC)C(N)=O)[C@@H](C)CC [Peptide 240] (I: Ac-RRHHRQRVRIIFK-NH2 / II: Ac-RRHHRQRVRIIF; amide I:13-II:C)
- IC50 [3]: < 10 µM
- IC50 ([1]; 48 h): < 10 µM
- IC50 [4]: < 10 µM

Compound: 381 (Ac-ARRRRQAVAIYFK-NH2; not fully specified (residue 13); also: homodimer via Ida-PEG 30 kDa linker on Lys13 side chain) [compound 381]
- IC50 [1, 5]: < 10 µM
- Matrigel Model % Inhibition [2, 6]: 51.0%

Compound: 279 (Ac-RRRRRQRVRIYFK-NH2; not fully specified (residue 13); also: homodimer via Ida linker on Lys13 side chain) [compound 279]
- IC50 [1, 5]: < 10 µM
- Matrigel Model % Inhibition ([2]; peptide dimers, i.p. 0.2mg/d): 56.0%

Compound: 331 (Ac-ARRRRQRVAIYFK-NH2; not fully specified (residue 13); also: homodimer via Lys13 side chain, GP3 linker) [compound 331]
- IC50 [1, 5]: < 10 µM
- Matrigel Model % Inhibition ([2]; peptide dimers, i.p. 0.2mg/d): 44.0%

Compound: 228 (Ac-ARRRRQRVAIYFK; also: homodimer via Ida linker on side chain of Lys13) [compound 228]
- IC50 [1, 5]: < 10 µM
- Matrigel Model % Inhibition ([2]; peptide dimers, i.p. 0.2mg/d): 55.0%
